Reference: patent publication US12077503B2, “Substituted cyclic amides and their use as herbicides” (FMC CORPORATION, priority 2015, dated 2024)

Columns and labels:
Type in all cases: in vivo
[1] = system: velvetleaf (Abutilon theophrasti); assay: Test G Post-Emergence Protocol; settings: Abutilon theophrasti, post-emergence, 312 h, read-out: Velvetleaf damage rating; for pest or weed control at 15.625 g/ha: 15.625 g ai/ha, evaluated after 13 days (100=total damage to plant; 0=no damage to plant); for pest or weed control at 62.5 g/ha: 62.5 g ai/ha; for pest or weed control at 62.5 g/ha / pest or weed control at 250 g/ha: evaluated after 13 days, 100=total damage to plant, 0=no damage to plant; for pest or weed control at 250 g/ha: 250 g ai/ha
In short: (§1)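 A glasshouse post-emergence test: 8-day-old plants sprayed at 15.625, 62.5 or 250 g/ha, then grown at 24/16 °C day/night with 14 h light and 65% humidity. Damage rated 13 days later, 0–100.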

corn (Zea mays) [2] = assay: Test G Post-Emergence Protocol; settings: Zea mays, post-emergence, 312 h, read-out: Corn damage rating; for plant injury at 15.625 g/ha: 15.625 g ai/ha, evaluated after 13 days (100=total damage to plant; 0=no damage to plant); for plant injury at 62.5 g/ha: 62.5 g ai/ha; for plant injury at 62.5 g/ha / plant injury at 250 g/ha: evaluated after 13 days, 100=total damage to plant, 0=no damage to plant; for plant injury at 250 g/ha: 250 g ai/ha
In short: as §1

[3] = system: giant foxtail (Setaria faberi); assay: Test G Post-Emergence Protocol; settings: Setaria faberi, post-emergence, 312 h, read-out: Foxtail, Giant damage rating; for pest or weed control at 15.625 g/ha: 15.625 g ai/ha, evaluated after 13 days (100=total damage to plant; 0=no damage to plant); for pest or weed control at 62.5 g/ha: 62.5 g ai/ha; for pest or weed control at 62.5 g/ha / pest or weed control at 250 g/ha: evaluated after 13 days, 100=total damage to plant, 0=no damage to plant; for pest or weed control at 250 g/ha: 250 g ai/ha
In short: as §1

[4] = system: ivy-leaved morning glory (Ipomoea hederacea); assay: Test G Post-Emergence Protocol; settings: Ipomoea, post-emergence, 312 h, read-out: Morningglory, Ivy-leaved damage rating; for pest or weed control at 15.625 g/ha: 15.625 g ai/ha, evaluated after 13 days (100=total damage to plant; 0=no damage to plant); for pest or weed control at 62.5 g/ha: 62.5 g ai/ha; for pest or weed control at 62.5 g/ha / pest or weed control at 250 g/ha: evaluated after 13 days, 100=total damage to plant, 0=no damage to plant; for pest or weed control at 250 g/ha: 250 g ai/ha
In short: as §1

[5] = system: barnyardgrass (Echinochloa crus-galli); assay: Test G Post-Emergence Protocol; settings: Echinochloa crus-galli, post-emergence, 312 h, read-out: Barnyardgrass damage rating; for pest or weed control at 15.625 g/ha: 15.625 g ai/ha, evaluated after 13 days (100=total damage to plant; 0=no damage to plant); for pest or weed control at 62.5 g/ha: 62.5 g ai/ha; for pest or weed control at 62.5 g/ha / pest or weed control at 250 g/ha: evaluated after 13 days, 100=total damage to plant, 0=no damage to plant; for pest or weed control at 250 g/ha: 250 g ai/ha
In short: as §1

[6] = system: redroot pigweed (Amaranthus retroflexus); assay: Test G Post-Emergence Protocol; settings: Amaranthus retroflexus, post-emergence, 312 h, read-out: Pigweed, Redroot damage rating; for pest or weed control at 15.625 g/ha: 15.625 g ai/ha, evaluated after 13 days (100=total damage to plant; 0=no damage to plant); for pest or weed control at 62.5 g/ha: 62.5 g ai/ha; for pest or weed control at 62.5 g/ha / pest or weed control at 250 g/ha: evaluated after 13 days, 100=total damage to plant, 0=no damage to plant; for pest or weed control at 250 g/ha: 250 g ai/ha
In short: as §1

[7] = system: velvetleaf (Abutilon theophrasti); assay: Test G Pre-Emergence Protocol; settings: Abutilon theophrasti, pre-emergence, 312 h, evaluated after 13 days; for pest or weed control at 15.625 g/ha: 15.625 g ai/ha; for pest or weed control at 15.625 g/ha / pest or weed control at 250 g/ha: read-out: Velvetleaf damage rating (100=total damage to plant; 0=no damage to plant); for pest or weed control at 62.5 g/ha: 62.5 g ai/ha, 100=total damage to plant, 0=no damage to plant, read-out: Velvetleaf damage rating; for pest or weed control at 250 g/ha: 250 g ai/ha
In short: (§2)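 Under a 24/16° C day/night regime with 14 h light and 65% humidity, sown pots were sprayed after one day with compound (15.625, 62.5 or 250 g/ha; 50:50 acetone/water, 0.5% Tween 20). Damage was assessed visually 13 days later, 0 to 100.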

corn (Zea mays) [8] = assay: Test G Pre-Emergence Protocol; settings: Zea mays, pre-emergence, 312 h, evaluated after 13 days; for plant injury at 15.625 g/ha: 15.625 g ai/ha; for plant injury at 15.625 g/ha / plant injury at 250 g/ha: read-out: Corn damage rating (100=total damage to plant; 0=no damage to plant); for plant injury at 62.5 g/ha: 62.5 g ai/ha, 100=total damage to plant, 0=no damage to plant, read-out: Corn damage rating; for plant injury at 250 g/ha: 250 g ai/ha
In short: as §2

[9] = system: giant foxtail (Setaria faberi); assay: Test G Pre-Emergence Protocol; settings: Setaria faberi, pre-emergence, 312 h, evaluated after 13 days; for pest or weed control at 15.625 g/ha: 15.625 g ai/ha; for pest or weed control at 15.625 g/ha / pest or weed control at 250 g/ha: read-out: Foxtail, Giant damage rating (100=total damage to plant; 0=no damage to plant); for pest or weed control at 62.5 g/ha: 62.5 g ai/ha, 100=total damage to plant, 0=no damage to plant, read-out: Foxtail, Giant damage rating; for pest or weed control at 250 g/ha: 250 g ai/ha
In short: as §2

[10] = system: ivy-leaved morning glory (Ipomoea hederacea); assay: Test G Pre-Emergence Protocol; settings: Ipomoea, pre-emergence, 312 h, evaluated after 13 days; for pest or weed control at 15.625 g/ha: 15.625 g ai/ha; for pest or weed control at 15.625 g/ha / pest or weed control at 250 g/ha: read-out: Morningglory, Ivy-leaved damage rating (100=total damage to plant; 0=no damage to plant); for pest or weed control at 62.5 g/ha: 62.5 g ai/ha, 100=total damage to plant, 0=no damage to plant, read-out: Morningglory, Ivy-leaved damage rating; for pest or weed control at 250 g/ha: 250 g ai/ha
In short: as §2

[11] = system: barnyardgrass (Echinochloa crus-galli); assay: Test G Pre-Emergence Protocol; settings: Echinochloa crus-galli, pre-emergence, 312 h, evaluated after 13 days; for pest or weed control at 15.625 g/ha: 15.625 g ai/ha; for pest or weed control at 15.625 g/ha / pest or weed control at 250 g/ha: read-out: Barnyardgrass damage rating (100=total damage to plant; 0=no damage to plant); for pest or weed control at 62.5 g/ha: 62.5 g ai/ha, 100=total damage to plant, 0=no damage to plant, read-out: Barnyardgrass damage rating; for pest or weed control at 250 g/ha: 250 g ai/ha
In short: as §2

[12] = system: redroot pigweed (Amaranthus retroflexus); assay: Test G Pre-Emergence Protocol; settings: Amaranthus retroflexus, pre-emergence, 312 h, evaluated after 13 days; for pest or weed control at 15.625 g/ha: 15.625 g ai/ha; for pest or weed control at 15.625 g/ha / pest or weed control at 250 g/ha: read-out: Pigweed, Redroot damage rating (100=total damage to plant; 0=no damage to plant); for pest or weed control at 62.5 g/ha: 62.5 g ai/ha, 100=total damage to plant, 0=no damage to plant, read-out: Pigweed, Redroot damage rating; for pest or weed control at 250 g/ha: 250 g ai/ha
In short: as §2

Structure (SMILES) | pest or weed control at 15.625 g/ha [1] [%] | pest or weed control at 62.5 g/ha [1] [%] | pest or weed control at 250 g/ha [1] [%] | plant injury at 15.625 g/ha (corn (Zea mays) [2]) [%] | plant injury at 62.5 g/ha (corn (Zea mays) [2]) [%] | plant injury at 250 g/ha (corn (Zea mays) [2]) [%] | pest or weed control at 15.625 g/ha [3] [%] | pest or weed control at 62.5 g/ha [3] [%] | pest or weed control at 250 g/ha [3] [%] | pest or weed control at 15.625 g/ha [4] [%] | pest or weed control at 62.5 g/ha [4] [%] | pest or weed control at 250 g/ha [4] [%] | pest or weed control at 15.625 g/ha [5] [%] | pest or weed control at 62.5 g/ha [5] [%] | pest or weed control at 250 g/ha [5] [%] | pest or weed control at 15.625 g/ha [6] [%] | pest or weed control at 62.5 g/ha [6] [%] | pest or weed control at 250 g/ha [6] [%] | pest or weed control at 15.625 g/ha [7] [%] | pest or weed control at 62.5 g/ha [7] [%] | also measured
C=C(C)c1cccc([C@@H]2CN(C)C(=O)[C@H]2C(=O)Nc2cccc(F)c2C)c1 (racemic) [Compound 1828] | 0 | 20 | 10 | 0 | 10 | 70 | 70 | 80 | 80 | 20 | 60 | 70 | 30 | 80 | 80 | 0 | 0 | 20 | 0 | 0 | pest or weed control at 250 g/ha [7]: 30%; plant injury at 15.625 g/ha (corn (Zea mays) [8]): 0%; plant injury at 62.5 g/ha (corn (Zea mays) [8]): 10%; plant injury at 250 g/ha (corn (Zea mays) [8]): 70%; pest or weed control at 15.625 g/ha [9]: 80%; pest or weed control at 62.5 g/ha [9]: 90%; pest or weed control at 250 g/ha [9]: 90%; pest or weed control at 15.625 g/ha [10]: 0%; pest or weed control at 62.5 g/ha [10]: 0%; pest or weed control at 250 g/ha [10]: 30%; pest or weed control at 15.625 g/ha [11]: 70%; pest or weed control at 62.5 g/ha [11]: 80%; pest or weed control at 250 g/ha [11]: 90%; pest or weed control at 15.625 g/ha [12]: 0%; pest or weed control at 62.5 g/ha [12]: 0%; pest or weed control at 250 g/ha [12]: 0%
CN1C[C@@H](c2cccc(Oc3ccc(F)cc3)c2)[C@H](C(=O)Nc2cccc(F)n2)C1=O (racemic) [Compound 1829] | 0 | 0 | 20 | 20 | 0 | 60 | 70 | 80 | 80 | 20 | 20 | 30 | 0 | 60 | 70 | 0 | 20 | 60 | 0 | 0 | pest or weed control at 250 g/ha [7]: 20%; plant injury at 15.625 g/ha (corn (Zea mays) [8]): 0%; plant injury at 62.5 g/ha (corn (Zea mays) [8]): 10%; plant injury at 250 g/ha (corn (Zea mays) [8]): 60%; pest or weed control at 15.625 g/ha [9]: 70%; pest or weed control at 62.5 g/ha [9]: 80%; pest or weed control at 250 g/ha [9]: 90%; pest or weed control at 15.625 g/ha [10]: 0%; pest or weed control at 62.5 g/ha [10]: 0%; pest or weed control at 250 g/ha [10]: 0%; pest or weed control at 15.625 g/ha [11]: 60%; pest or weed control at 62.5 g/ha [11]: 70%; pest or weed control at 250 g/ha [11]: 90%; pest or weed control at 15.625 g/ha [12]: 0%; pest or weed control at 62.5 g/ha [12]: 0%; pest or weed control at 250 g/ha [12]: 30%
